From patent US9200252B2, “Compositions for inducing differentiation into retinal cells from retinal progenitor cells or inducing proliferation of retinal cells comprising Wnt signaling pathway activators” (SNU R&DB Foundation, priority 2009, dated 2015)

Tested on: hESC-derived retinal progenitor cells
Experiment: Differentiation of hESC-derived retinal progenitor cells into photoreceptor cells with substitutes for Wnt3a or Shh; positive rates of retinal cell markers by immunochemical staining
Format: cell-based, human
Details: Mean ± S.E.M., sample size 3
Description: The eye field precursors (floating aggregates) were cultured in 8-well poly-D-lysine/laminin-coated slides (BD Biosciences, Bedford, Mass.) under the same conditions that were used for differentiation into the retinal progenitor cells, the neural retinal progenitor cells, the photoreceptor cell precursors and the photoreceptor cells.
After being blocked for 90 min, the slides in each differentiation step were incubated overnight at 4° C. with the following antibodies specific for cells of each differentiation step: rabbit-Blue-opsin (1:500, Chemicon), sheep-Chx10 (1:100, Chemicon), rabbit-Crx (1:200, Santa Cruz Biotechnology, Santa Cruz, Calif., USA), rabbit-GFAP (1:200, Invitrogen), mouse-human specific mitochondria (1:50, Chemicon), rabbit-human specific mitochondria (1:200, Chemicon), mouse-Islet1 (1:10, Developmental Studies Hydroma Bank, DSHB; Iowa City, Iowa, USA), mouse-Ki67 (1:100, Vector Laboratories, Peterborough, England), mouse-Mitf (1:1,000, abcam, Cambridge, Mass., USA), mouse-nestin (1:250, BD Sciences), rabbit-neurofilament-200 (1:1,000, Sigma-Aldrich), rabbit-Otx2 (1:100, abcam), rabbit-Pax2 (1:250, abcam), mouse-Pax6 (1:2, DSHB), mouse-peripherin2 (1:500, GenScript, Piscataway, N.J., USA), rabbit-Rax (1:250, abcam), rabbit-recoverin (1:1,000, Chemicon), retinal pigment epithelium 65 (RPE65, 1:100, Chemicon), rabbit-rhodopsin (1:500, Sigma-Aldrich), mouse-rhodopsin (1:500, Ret-P1, Lab Vision, Fremont, Calif., USA), mouse-rhodopsin (1:2,000, Ret-P1, Sigma-Aldrich), mouse-rom1 (1:50, ABR-Affinity Bioreagents, Golden, Colo., USA), rabbit-PDE6 beta (1:100, abcam), rabbit-phosducin (1:500, Santa Cruz Biotechnology), mouse-PKC-alpha (1:500, Sigma-Aldrich), mouse-Prox1 (1:2,000, Chemicon), mouse-Sox2 (1:250, R&D Systems), rabbit-synaptophysin (1:2,000, Santa Cruz Biotechnology), and rabbit-ZO-1 (1:100, Zymed-Invitrogen).
The cells cultured on the slides in each step were washed three times for 5 min with PBS and incubated at room temperature for 2 hrs with species-specific secondary antibody conjugated with Cy3 (1:800, Jackson Immunoresearch Laboratory) or Alexa488 (1:500, Invitrogen). A standard material suitable for the primary and the secondary antibody was used to examine non-specific staining or interaction between the antibodies. Afterwards, the cells were washed three times for 5 min with PBS, counterstained with DAPI (4,6-diamidino-2 phenylindole) and mounted in Vectashield (Vector Laboratories), followed by visualization under an epifluorescence microscope (Nikon Eclipse, E800, Tokyo, Japan) and a confocal microscope (Leica, Leica Microsystems Inc, Bannockburn, Ill., USA or Zeiss LSM510, Carl Zeiss, Inc, Thornwood, N.Y., USA).
500 cells were counted from 20 microscopic fields randomly selected at 200 magnification and evaluated for positive responses to each antibody. Positive responses to antibodies were determined after at least three evaluations. […] All data were represented as mean±standard error of the mean (S.E.M) with a statistical significance of p<0.05.

Molecule: [Cl-].[Li+] [LiCl, reference compound]
- Positive rate of recoverin (2.5 mM instead of Wnt3a): 64.1(±2.9) %
- Positive rate of rhodopsin (2.5 mM instead of Wnt3a): 56.2(±1.7) %
- Positive rate of Crx (5 mM instead of Wnt3a): 5.0(±1.7) %
- Positive rate of Ki67 (5 mM instead of Wnt3a): 33.3(±2.2) %
- Positive rate of peripherin2 (5 mM instead of Wnt3a): 1.5(±0.9) %
- Positive rate of recoverin (5 mM instead of Wnt3a): 78.9(±4.4) %
- Positive rate of rhodopsin (5 mM instead of Wnt3a): 68.5(±2.2) %

Molecule: O=C1NC(=O)C(c2ccccc2[N+](=O)[O-])=C1Nc1ccc(O)c(Cl)c1 [SB415286, reference compound]
- Positive rate of Crx (30 uM instead of Wnt3a): 53.7(±2.7) %
- Positive rate of Ki67 (30 uM instead of Wnt3a): 13.3(±1.2) %
- Positive rate of Pax6 (30 uM instead of Wnt3a): 89.1(±0.6) %
- Positive rate of Rom (30 uM instead of Wnt3a): 59.5(±0.7) %
- Positive rate of b-opsin (30 uM instead of Wnt3a): 53.7(±2.7) %
- Positive rate of peripherin2 (30 uM instead of Wnt3a): 9.1(±0.6) %
- Positive rate of recoverin (30 uM instead of Wnt3a): 70.0(±0.6) %
- Positive rate of rhodopsin (30 uM instead of Wnt3a): 69.3(±0.5) %

Molecule: Norrin: recombinant Norrin (R&D Systems), activator of the Wnt pathway, binds to Frizzled4 receptor
- Positive rate of Crx (50 ng/ml instead of Wnt3a): 39.3(±0.8) %
- Positive rate of Ki67 (50 ng/ml instead of Wnt3a): 42.2(±6.8) %
- Positive rate of Rom (50 ng/ml instead of Wnt3a): 69.5(±2.7) %
- Positive rate of b-opsin (50 ng/ml instead of Wnt3a): 71.1(±0.6) %
- Positive rate of peripherin2 (50 ng/ml instead of Wnt3a): 24.9(±4.5) %
- Positive rate of recoverin (50 ng/ml instead of Wnt3a): 85.0(±7.2) %
- Positive rate of rhodopsin (50 ng/ml instead of Wnt3a): 82.9(±7.1) %

Molecule: O=C1Nc2cc(Br)ccc2/C1=C1/Nc2ccccc2/C1=N\O [BIO, 6-bromoindirubin-3′-oxime, reference compound]
- Positive rate of Crx (2 uM instead of Wnt3a): 65.8(±1.0) %
- Positive rate of Ki67 (2 uM instead of Wnt3a): 17.2(±0.6) %
- Positive rate of Pax6 (2 uM instead of Wnt3a): 92.8(±1.0) %
- Positive rate of Rom (2 uM instead of Wnt3a): 60.3(±0.9) %
- Positive rate of b-opsin (2 uM instead of Wnt3a): 77.5(±1.8) %
- Positive rate of peripherin2 (2 uM instead of Wnt3a): 33.9(±0.1) %
- Positive rate of recoverin (2 uM instead of Wnt3a): 77.1(±0.8) %
- Positive rate of rhodopsin (2 uM instead of Wnt3a): 71.5(±1.2) %

Molecule: c1ccc2c(Oc3nc(Nc4ccc(N5CCOCC5)cc4)c4ncn(C5CCCCC5)c4n3)cccc2c1 [purmorphamine, reference compound]
- Positive rate of Crx (1 uM instead of Shh): 71.6(±0.8) %
- Positive rate of Ki67 (1 uM instead of Shh): 24.3(±0.5) %
- Positive rate of peripherin2 (1 uM instead of Shh): 41.5(±1.2) %
- Positive rate of recoverin (1 uM instead of Shh): 76.5(±0.9) %
- Positive rate of rhodopsin (1 uM instead of Shh): 73.5(±1.2) %

B1: Wnt5A: recombinant Wnt5A (R&D Systems), Wnt signaling pathway activator used instead of Wnt3a (protein, UniProt P41221 62-380, looked up)
Protein Wnt-5a: IIGAQPLCSQLAGLSQGQKKLCHLYQDHMQYIGEGAKTGIKECQYQFRHRRWNCSTVDNTSVFGRVMQIGSRETAFTYAVSAAGVVNAMSRACREGELSTCGCSRAARPKDLPRDWLWGGCGDNIDYGYRFAKEFVDARERERIHAKGSYESARILMNLHNNEAGRRTVYNLADVACKCHGVSGSCSLKTCWLQLADFRKVGDALKEKYDSAAAMRLNSRGKLVQVNSRFNSPTTQDLVYIDPSPDYCVRNESTGSLGTQGRLCNKTSEGMDGCELMCCGRGYDQFKTVQTERCHCKFHWCCYVKCKKCTEIVDQFVCK
- Positive rate of Crx (50 ng/ml instead of Wnt3a): 67.3(±1.9) %
- Positive rate of Ki67 (50 ng/ml instead of Wnt3a): 41.3(±3.9) %
- Positive rate of Rom (50 ng/ml instead of Wnt3a): 58.8(±2.7) %
- Positive rate of b-opsin (50 ng/ml instead of Wnt3a): 55.0(±4.4) %
- Positive rate of peripherin2 (50 ng/ml instead of Wnt3a): 20.7(±0.8) %
- Positive rate of recoverin (50 ng/ml instead of Wnt3a): 61.0(±3.2) %
- Positive rate of rhodopsin (50 ng/ml instead of Wnt3a): 59.5(±2.0) %
- Positive rate of peripherin2 (100 ng/ml instead of Wnt3a): 14.2(±2.8) %
- Positive rate of recoverin (100 ng/ml instead of Wnt3a): 61.6(±2.5) %
- Positive rate of rhodopsin (100 ng/ml instead of Wnt3a): 56.1(±1.8) %

B2: Wnt1: recombinant Wnt1 (PeproTech), Wnt signaling pathway activator used instead of Wnt3a (protein, UniProt P04628 28-370, looked up)
Proto-oncogene Wnt-1: ANSSGRWWGIVNVASSTNLLTDSKSLQLVLEPSLQLLSRKQRRLIRQNPGILHSVSGGLQSAVRECKWQFRNRRWNCPTAPGPHLFGKIVNRGCRETAFIFAITSAGVTHSVARSCSEGSIESCTCDYRRRGPGGPDWHWGGCSDNIDFGRLFGREFVDSGEKGRDLRFLMNLHNNEAGRTTVFSEMRQECKCHGMSGSCTVRTCWMRLPTLRAVGDVLRDRFDGASRVLYGNRGSNRASRAELLRLEPEDPAHKPPSPHDLVYFEKSPNFCTYSGRLGTAGTAGRACNSSSPALDGCELLCCGRGHRTRTQRVTERCNCTFHWCCHVSCRNCTHTRVLHECL
- Positive rate of Crx (50 ng/ml instead of Wnt3a): 60.3(±1.3) %
- Positive rate of Ki67 (50 ng/ml instead of Wnt3a): 23.8(±1.2) %
- Positive rate of Rom (50 ng/ml instead of Wnt3a): 55.9(±2.9) %
- Positive rate of b-opsin (50 ng/ml instead of Wnt3a): 61.6(±6.8) %
- Positive rate of peripherin2 (50 ng/ml instead of Wnt3a): 3.8(±2.0) %
- Positive rate of recoverin (50 ng/ml instead of Wnt3a): 70.9(±1.8) %
- Positive rate of rhodopsin (50 ng/ml instead of Wnt3a): 66.2(±5.4) %

B3: Wnt11: recombinant Wnt11 (R&D Systems), Wnt signaling pathway activator used instead of Wnt3a (protein, UniProt O96014 25-354, looked up)
Protein Wnt-11: IKWLALSKTPSALALNQTQHCKQLEGLVSAQVQLCRSNLELMHTVVHAAREVMKACRRAFADMRWNCSSIELAPNYLLDLERGTRESAFVYALSAAAISHAIARACTSGDLPGCSCGPVPGEPPGPGNRWGGCADNLSYGLLMGAKFSDAPMKVKKTGSQANKLMRLHNSEVGRQALRASLEMKCKCHGVSGSCSIRTCWKGLQELQDVAADLKTRYLSATKVVHRPMGTRKHLVPKDLDIRPVKDSELVYLQSSPDFCMKNEKVGSHGTQDRQCNKTSNGSDSCDLMCCGRGYNPYTDRVVERCHCKYHWCCYVTCRRCERTVERYVCK
- Positive rate of Crx (50 ng/ml instead of Wnt3a): 65.9(±5.8) %
- Positive rate of Ki67 (50 ng/ml instead of Wnt3a): 40.1(±5.2) %
- Positive rate of Rom (50 ng/ml instead of Wnt3a): 50.2(±7.4) %
- Positive rate of b-opsin (50 ng/ml instead of Wnt3a): 30.6(±6.2) %
- Positive rate of peripherin2 (50 ng/ml instead of Wnt3a): 0.5(±0.3) %
- Positive rate of recoverin (50 ng/ml instead of Wnt3a): 65.3(±2.7) %
- Positive rate of rhodopsin (50 ng/ml instead of Wnt3a): 51.8(±7.7) %
- Positive rate of peripherin2 (100 ng/ml instead of Wnt3a): 10.7(±2.9) %
- Positive rate of recoverin (100 ng/ml instead of Wnt3a): 61.8(±4.1) %
- Positive rate of rhodopsin (100 ng/ml instead of Wnt3a): 59.1(±5.4) %
